Some test systems named below: DMS 273 small cell lung; DMS 114 small cell lung; XF 498 CNS; M19-MEL melanoma; DLD-1 colon; NCI/ADR-RES ovarian; T-47D breast; HS 578T breast; MCF7 breast.
Common to all, as to test: NCI tumour cell line growth inhibition, 48 h

The structures appear in SMILES notation.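 Cultured in 96-well plates, cells were exposed to test compound for 48 hours across five concentrations. Here, GI50 denotes the concentration required for 50% inhibition of growth. Definition used: TGI = concentration required for complete inhibition of growth.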

As for `C[C@@H]1OC(=O)N2CCCC(=C3SCCCS3)C12` (stereo partly drawn), the TGI in the assay on DMS 273 small cell lung, in the assay with DMS 114 small cell lung, in the assay on XF 498 CNS and in the assay with M19-MEL melanoma was more than 100 µM in each case.
Turning to `CCOC(=O)/C(=C\c1ccccc1)C(=O)O`, the TGI with DMS 273 small cell lung, in the assay with DMS 114 small cell lung, in the assay with XF 498 CNS and with M19-MEL melanoma was more than 100 µM throughout.
Take `CCOC(=O)/C(C#N)=C/c1[nH]c(C(=O)OCc2ccccc2)c(C)c1C`: the TGI with DMS 273 small cell lung, in the assay on DLD-1 colon, with DMS 114 small cell lung and in the assay with M19-MEL melanoma was more than 100 µM in each case.
Turning to `O=C(CCc1cc(-c2ccccc2)nc(=S)[nH]1)N(Cc1ccccc1)Cc1ccccc1`, the TGI in the assay with DMS 273 small cell lung, in the assay on DLD-1 colon, in the assay with DMS 114 small cell lung, in the assay with XF 498 CNS and with M19-MEL melanoma was more than 100 µM in each case.
As to `COc1cc(Nc2nc3ccccc3nc2-c2cccs2)cc(OC)c1OC`, the TGI was more than 100 µM in the assay with DMS 273 small cell lung, more than 100 µM in the assay with DLD-1 colon, 76.6 µM in the assay with XF 498 CNS and more than 100 µM with M19-MEL melanoma.
Take `CC1OC(OC2C(OC(=O)[C@]34CCC(C)(C)CC3C3=CCC5[C@@]6(C)C[C@H](O)[C@H](OC7OC(CO)C(O)C(O)C7N)[C@@](C)(C(=O)O)C6CC[C@@]5(C)C3(C)CC4)OCC(O)C2O)C(O)C(O)C1OC1OCC(O)C(O)C1O` (stereo partly drawn): the TGI with DMS 273 small cell lung, with DLD-1 colon, in the assay on DMS 114 small cell lung and in the assay with M19-MEL melanoma was more than 100 µM in each case.
For the compound `O=C(O)C(CS)Nc1c2ccccc2nc2ccccc12` (stereo not drawn), the TGI in the assay on DMS 273 small cell lung, in the assay on DLD-1 colon, in the assay with DMS 114 small cell lung, with XF 498 CNS and with M19-MEL melanoma was more than 100 µM in each case.
For the compound `NC12CC3CC(C1)CC(C(=O)O)(C3)C2`, the TGI in the assay with DMS 273 small cell lung, in the assay with DLD-1 colon, with DMS 114 small cell lung, in the assay on XF 498 CNS and with M19-MEL melanoma was more than 100 µM each time.
For `O=C1NC(=O)C(CCC(=O)c2ccc3ccccc3c2)C(=O)N1`, the TGI with DMS 273 small cell lung, with DLD-1 colon, with DMS 114 small cell lung, in the assay on XF 498 CNS and with M19-MEL melanoma was more than 100 µM in each case.
With `O=[N+]([O-])c1ccc(C=NC2CCCCC2)cc1`, the TGI with DMS 273 small cell lung, with DLD-1 colon, with DMS 114 small cell lung, in the assay on XF 498 CNS and with M19-MEL melanoma was more than 100 µM throughout.
Regarding `COC1(OC)CC2OC1C1N=NN(C(=O)OC(C)(C)C)C21` (stereo not drawn), the TGI with DMS 273 small cell lung, with DLD-1 colon, in the assay with DMS 114 small cell lung, in the assay with XF 498 CNS and in the assay on M19-MEL melanoma was more than 100 µM throughout.
Take `COc1ccc(NC(=O)CC(=O)N/N=C/c2ccc(N(CCC#N)S(C)(=O)=O)cc2)cc1`: the TGI in the assay with DMS 273 small cell lung, with DLD-1 colon, with DMS 114 small cell lung and in the assay on M19-MEL melanoma was more than 100 µM in each case.
With `NC1=NC(c2ccccc2)CC(c2cc(Cl)ccc2O)=N1` (stereo not drawn), the TGI with DMS 273 small cell lung worked out at 25.6 µM; in the assay on DLD-1 colon, 25.9 µM; in the assay on DMS 114 small cell lung, 25.6 µM; with XF 498 CNS, 33.7 µM; with M19-MEL melanoma, 29.5 µM.
Consider `O=C(NC12CC3CC(CC(F)(C3)C1)C2)c1ccccc1`, for which the TGI with DMS 273 small cell lung, in the assay on DLD-1 colon, with DMS 114 small cell lung, in the assay with XF 498 CNS and in the assay with M19-MEL melanoma was more than 100 µM in each case.
For the compound `C/C(O)=C(\N=O)C(=O)Nc1ccc(Cl)cc1Cl`, the TGI in the assay on DMS 273 small cell lung, in the assay with DLD-1 colon, with DMS 114 small cell lung and in the assay on M19-MEL melanoma was more than 100 µM in each case.
In the case of `CN(C)CCNC(=O)c1cccc2ccc(-c3ccncc3)nc12`, the TGI in the assay with DMS 273 small cell lung is 7.76 µM; with DLD-1 colon it was 31 µM; with DMS 114 small cell lung, 8.95 µM; in the assay on M19-MEL melanoma, 4.86 µM.
Take `COc1ccc2c(c1)C(=O)Cc1ccccc1CC2`: the TGI in the assay on DMS 273 small cell lung, in the assay on DLD-1 colon, in the assay on DMS 114 small cell lung, in the assay with XF 498 CNS and with M19-MEL melanoma was more than 100 µM in each case.
As for `CCN(CC)C(c1ccc(N(C)C)cc1)C(c1ccc(N(C)C)cc1)N(CC)CC` (stereo not drawn), the TGI is more than 73 µM in the assay with DMS 273 small cell lung, 40.6 µM with DMS 114 small cell lung and more than 73 µM in the assay with M19-MEL melanoma.
On to `C/C(CC(=O)Nc1cc(C)ccc1C)=N\NC(=O)c1ccncc1`, for which the TGI in the assay on DLD-1 colon and with M19-MEL melanoma was more than 100 µM throughout.
Consider `CC(=O)OCC1OC(NC(=S)N/N=C2\CC(c3ccccc3)Oc3ccccc32)C(OC(C)=O)C(OC(C)=O)C1OC(C)=O` (stereo not drawn), for which the TGI in the assay with DMS 273 small cell lung, with DLD-1 colon, in the assay on DMS 114 small cell lung, with XF 498 CNS and in the assay on M19-MEL melanoma was more than 100 µM throughout.
Regarding `CNC(=O)C1CCc2nnc(-c3ccccc3)n21` (stereo not drawn), the TGI in the assay on DMS 273 small cell lung, with DLD-1 colon, in the assay on DMS 114 small cell lung and in the assay with M19-MEL melanoma was more than 100 µM each time.
Take `Cc1c(C(=O)C/C(=N/NC(=O)C[N+](C)(C)C)C(=O)Nc2ccc(Cl)cc2)[n+](=O)c2ccccc2n1O`: the TGI with DMS 273 small cell lung, in the assay on DLD-1 colon, in the assay on DMS 114 small cell lung, in the assay on XF 498 CNS and in the assay with M19-MEL melanoma was more than 100 µM throughout.
For the compound `CCCC1N2CCCCC2[C@@H]2c3[nH]c4ccccc4c3CCN12` (stereo partly drawn), the TGI in the assay on DMS 273 small cell lung, in the assay with DLD-1 colon, in the assay on DMS 114 small cell lung, with XF 498 CNS and in the assay with M19-MEL melanoma was more than 100 µM throughout.
Regarding `Cc1ccc(-c2nc3nc(-c4ccccc4)nc(N4CCCNCC4)c3o2)cc1`, the GI50 was 2.17 µM with NCI/ADR-RES ovarian, 1.73 µM in the assay on T-47D breast, 1.83 µM with HS 578T breast and 1.48 µM with MCF7 breast. The TGI came to 4.71 µM in the assay with NCI/ADR-RES ovarian, 3.5 µM with T-47D breast, 4.02 µM in the assay on HS 578T breast and 3.5 µM in the assay with MCF7 breast.
Take `O=C1c2ccccc2C(=O)N1CCc1ncc[nH]1`: the TGI in the assay on NCI/ADR-RES ovarian, with T-47D breast, with HS 578T breast and in the assay on MCF7 breast was more than 100 µM each time.

These data come from PubChem BioAssay (NCI).
